In patent publication US20240189408A1, “COMPOSITIONS AND METHODS FOR REDUCING METHANE EMISSIONS IN RUMINANT POPULATIONS” (Arkea Bio Corp., priority 2022, published 2024):
Several values for one entry are separate records, joined by “and”; a condition that tells them apart may be missing. Identical values can stand only once. Like-named read-outs stand apart in the source and are kept apart here.

Experiments:
[1] = Adsorbent study: binding affinity and adsorptive capacity for 3-NOP, HPLC at 230 nm
Method: The solution was then placed in an ultrasonic bath for ˜4 hr and then allowed to equilibrate over 24h.

rumen methanogens [2] = conditions: cited from earlier work
Mbb. Ruminantium = conditions: cited from earlier work
Methanosarcina mazei = conditions: cited from earlier work
Methanomicrobium mobile = conditions: cited from earlier work
[3] = 3-NOP to adsorbent ratio study; assay type: physicochemical; conditions: 24 hr, HPLC
Method: Optimal loading of 3-NOP onto adsorbents was determined by varying ratios of 3-NOP to adsorbent. 3-NOP and adsorbent were speed mixed at 2000 rpm for 1 min at the following ratios by weight: 1:1.5, 1:2, 1:2.5. The adsorbed 3-NOP powder mixture was then placed in distilled water at 1% 3-NOP loading. The solution was allowed to equilibrate for 24 hr and then an aliquot was taken for HPLC to determine the reduction in 3-NOP concentration.

rumen methanogens [4] = conditions: sheep, cited from earlier work
[5] = system: methane production in ruminants; conditions: 10 mmol/L; cited from earlier work
[6] = LNP size and polydispersity by DLS (Malvern Panalytical); assay type: physicochemical
Procedure, shortened: (§1)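 LNPs were made from mRNA at 0.35 mg/mL with Genvoy-ILM on a NanoAssemblr Ignite, dialysed into Ca/Mg-free DPBS to <0.5% ethanol and 0.2 µm filtered. Size and polydispersity were measured by DLS after 1:10 dilution in DPBS. Encapsulation efficiency was determined by RiboGreen assay per Precision Nanosystems protocol.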

[7] = LNP encapsulation efficiency, RiboGreen assay; assay type: physicochemical
Procedure, shortened: as §1

total IgG = test: Total sera IgG by radial immunodiffusion after IM or SQ vaccination with OVA mRNA LNPs; assay type: in vivo, dairy cows; conditions: for Serum IgG Concentration: one line per animal replicate
Method: (§2) Bovine nucleic acid vaccination protocols (SQ and IM) were assessed in vivo in the dairy cows through the quantification of the adaptive immune response following inoculation with ovalbumin (OVA). Immune response was assessed by quantifying total IgG and OVA-specific IgG over a 28-day period after vaccination. Both SQ and IM vaccination provided a robust immune response, with IM vaccination providing a higher total immune response than SQ vaccination.
(§3) Dairy cows were dried off for a period of eight days prior to vaccination. Each vaccine formulation was administered either by IM or SQ injection to three animals. In total, 15 animals were vaccinated with LNPs containing mRNA and 6 animals were vaccinated with empty LNPs. Intramuscular injections were delivered into the cow's right neck muscle by veterinary-trained staff using an 18-gauge 1-1.5″ needle. Subcutaneous injections were delivered into the cow's right shoulder by veterinary-trained staff using an 18-gauge 0.5-0.75″ needle. Total blood samples (˜20 mL) were collected by veterinary-trained staff. Samples were collected into 10 mL vacutainer tubes (2×10 mL) from the coccygeal vein (tail vein) by needle puncture. Harvested blood samples were then processed via ultracentrifugation for serum collection. Isolated serum samples were aliquoted, labeled and stored in cryogenic tubes at −20° C. until use.
Sera samples were thawed on ice and total IgG was quantified using Triple J Farms' Ig Radial Immunodiffusion (RID) kits (Cat No. 728411) following the manufacturers recommended protocol.

ovalbumin (OVA) = test: OVA-specific IgG ELISA of sera after IM or SQ vaccination; assay type: in vivo, dairy cows; conditions: for OVA-specific IgG, Absorbance (OD450): one line per animal replicate
Method: as §2, §3
Sera samples were thawed on ice and total IgG was quantified using NovateinBio's Bovine OVA sIgG Antibody ELISA Kit (Cat No. BG-BVN11731) following the manufacturer's recommended protocol. Each of the animals vaccinated with a construct show a demonstrable OVA-specific IgG response over the 28-day test period.

[8] = 0.2 g of adsorbent in 10 mL of 1% 3-NOP/H2O, after 24h, control 8.258 mM
[9] = 0.06 to 0.24 mmol/L, dose-dependent

NC(=O)CC[C@H](N)C(=O)O [Glutamine]
3-NOP concentration [1, 8]: 7.588 mM

C#CC(=O)O [propynoic acid]
lowering of CH4 production (rumen methanogens [2]; 6 mmol/L): 67%
lowering of CH4 production (rumen methanogens [2]; 12 mmol/L): 78%
sensitivity to the inhibitor, ranking of three species (Mbb. Ruminantium; pure cultures): most sensitive
sensitivity to the inhibitor, ranking of three species (Methanosarcina mazei; pure cultures): least sensitive
sensitivity to the inhibitor, ranking of three species (Methanomicrobium mobile; pure cultures): intermediate

CC#CC(=O)OCC [ethyl 2-butynoate]
sensitivity to the inhibitor, ranking of three species (Mbb. Ruminantium; pure cultures): most sensitive
sensitivity to the inhibitor, ranking of three species (Methanosarcina mazei; pure cultures): least sensitive
sensitivity to the inhibitor, ranking of three species (Methanomicrobium mobile; pure cultures): intermediate

O=S(=O)([O-])CCBr.[Na+] [BES, 2-bromoethanesulfonate]
sensitivity to the inhibitor, ranking of three species (Mbb. Ruminantium; pure cultures): most sensitive
sensitivity to the inhibitor, ranking of three species (Methanosarcina mazei; pure cultures): least sensitive
sensitivity to the inhibitor, ranking of three species (Methanomicrobium mobile; pure cultures): intermediate

CC[C@H](C)C(=O)O[C@H]1C[C@@H](C)C=C2C=C[C@H](C)[C@H](CC[C@@H]3C[C@@H](O)CC(=O)O3)[C@H]21 [lovastatin]
reduction of total CH4 production by rumen methanogens (rumen methanogens [2]; extracted from fermented rice straw, after 48 h in vitro incubation): ~28%
reduction of CH4 production (rumen methanogens [2]; rumen simulation technique (Rusitec), 150 mg/L): approximately 42%

Catechin
CH4 production (rumen methanogens [2]): decreased CH4 production both in vitro and in vivo

O=c1[nH]c(=O)c2nccnc2[nH]1 [lumazin, 2,4-pteridinedione]
CH4 production (Mbb. Ruminantium; [9]): significantly decreased
CH4 production (Methanosarcina mazei; [9]): significantly decreased
CH4 production (Methanomicrobium mobile; [9]): significantly decreased

NCCCC[C@H](N)C(=O)O [Lysine]
Average Integrated Area of 3-NOP in solution ([3]; 3-NOP:Adsorbent 1:1.5, distilled water at 1% 3-NOP loading): 2336.2
Average Integrated Area of 3-NOP in solution ([3]; 3-NOP:Adsorbent 1:2, distilled water at 1% 3-NOP loading): 2308.9
Average Integrated Area of 3-NOP in solution ([3]; 3-NOP:Adsorbent 1:2.5, distilled water at 1% 3-NOP loading): 2266.6
3-NOP concentration [1]: 18.583 mM

O=S(=O)([O-])[O-].O=S(=O)([O-])[O-].O=S(=O)([O-])[O-].[Bi+3].[Bi+3] [Bismuth Sulfate]
3-NOP concentration [1, 8]: 8.079 mM

O=C([O-])CC(O)(CC(=O)[O-])C(=O)[O-].[Bi+3] [Bismuth Citrate]
3-NOP concentration [1, 8]: 8.072 mM

Cyclodextrin
3-NOP concentration [1, 8]: 7.676 mM

Bovicin HC5
suppression of CH4 in vitro (rumen methanogens [2]): 50%

O=S(=O)([O-])[O-].[Cu+2] [Copper Sulfate]
3-NOP concentration [1, 8]: 7.814 mM

3-bromopropanesulfonate [BPS]
concentration up to which the species appeared resistant (Mbb. Ruminantium; pure cultures): 250 µmol/L
concentration up to which the species appeared resistant (Methanosarcina mazei; pure cultures): 250 µmol/L
concentration up to which the species appeared resistant (Methanomicrobium mobile; pure cultures): 250 µmol/L

C[N+](C)(C)CC(=O)O [Betaine]
3-NOP concentration [1, 8]: 7.202 mM

CC[N+](=O)[O-] [nitroethane]
decrease of CH4 production (rumen methanogens [4]; orally 24 mg/kg body weight daily for 5 days): up to 45%
decrease of CH4 production (rumen methanogens [4]; orally 72 mg/kg body weight daily for 5 days): ≤ 69%
Addition amount; maximum methane suppression amount [5]: 10 mmol/L; 96.7% (NE),

Nisin
suppression of CH4 in vitro (rumen methanogens [2]): up to 40%

B1: ARK015: mRNA: OVA + STOP, cytosolic OVA; SEQ ID NO: 16675 (nucleic acid)
chain: ATGTTCGTGTTCCTCGTGCTCCTGCCCCTCGTCTCCAGCCAGTGCGTGGGGTCCATAGGGGCTGCTTCTATGGAGTTCTGTTTTGATGTTTTCAAGGAACTGAAGGTTCACCATGCTAACGAGAACATCTTTTACTGTCCAATAGCCATCATGAGTGCGCTTGCTATGGTTTATTTGGGTGCAAAAGATTCTACTCGCACTCAGATTAATAAGGTCGTTAGATTCGACAAGCTTCCAGGGTTTGGAGACAGTATTGAGGCCCAATGTGGAACGTCAGTCAACGTCCATTCTTCTCTGCGGGACATTCTCAACCAAATAACGAAGCCAAACGACGTGTATTCCTTCTCACTCGCGTCACGGCTGTATGCTGAAGAAAGGTATCCTATCTTGCCAGAATATCTCCAGTGCGTCAAGGAGTTGTATCGAGGCGGACTGGAACCGATCAACTTTCAGACTGCAGCCGACCAGGCCCGCGAACTGATCAACAGCTGGGTCGAGTCTCAGACCAATGGGATCATACGCAATGTGTTGCAACCGAGTAGTGTCGACTCTCAGACGGCTATGGTCTTGGTGAACGCTATAGTCTTCAAAGGTCTGTGGGAGAAGACCTTCAAGGATGAAGACACACAAGCGATGCCATTCAGAGTCACCGAACAAGAAAGCAAACCCGTCCAAATGATGTACCAAATTGGGCTTTTTCGGGTGGCCTCTATGGCCTCTGAGAAAATGAAAATATTGGAACTGCCCTTCGCCAGCGGCACAATGAGTATGTTGGTCCTTCTTCCAGATGAAGTCTCAGGTCTCGAACAGCTTGAGTCTATCATTAACTTTGAGAAACTCACTGAATGGACTTCTTCCAATGTGATGGAAGAACGAAAAATCAAAGTCTACCTGCCCCGAATGAAGATGGAAGAGAAATATAATTTGACATCAGTTCTGATGGCCATGGGAATCACAGACGTGTTTTCATCCTCTGCGAATCTGTCTGGCATATCTTCCGCAGAATCTCTCAAGATCAGTCAAGCCGTCCACGCGGCCCATGCTGAGATAAATGAGGCGGGCAGAGAGGTGGTGGGGTCCGCCGAAGCTGGAGTCGACGCAGCTTCTGTCAGTGAAGAATTTAGGGCCGATCATCCTTTCCTGTTCTGCATAAAGCACATAGCTACGAACGCTGTGCTTTTCTTTGGCAGATGCGTTTCTCCATGA
modifications: listed as DNA
PDI ([6]; LNP polydispersity, mRNA LNPs of Table 18): 0.130
Z-avg. ([6]; LNP size, mRNA LNPs of Table 18): 68.06 nm·days
PDI ([6]; mRNA LNPs, Example 6): 0.1705
Z-avg. ([6]; mRNA LNPs, Example 6): 96.66 nm·days
Encapsulation efficiency ([7]; mRNA LNPs of Table 18): 62%
Encapsulation efficiency ([7]; mRNA LNPs, Example 6): 84%
Serum IgG Concentration (total IgG; IM injection, Day 0, dairy cows, dose 348-468 ug): 3,658 mg/dL and 4,086 mg/dL and 3,167 mg/dL
Serum IgG Concentration (total IgG; IM injection, Day 14, dairy cows, dose 348-468 ug): 3,692 mg/dL and 5,735 mg/dL and 3,947 mg/dL
Serum IgG Concentration (total IgG; IM injection, Day 21, dairy cows, dose 348-468 ug): 4,070 mg/dL and 2,488 mg/dL and 3,797 mg/dL
Serum IgG Concentration (total IgG; IM injection, Day 28, dairy cows, dose 348-468 ug): 3,272 mg/dL and 4,153 mg/dL and 2,723 mg/dL
Serum IgG Concentration (total IgG; SQ injection, Day 0, dairy cows, dose 353-468 ug): 4,875 mg/dL and 3,680 mg/dL and 2,964 mg/dL
Serum IgG Concentration (total IgG; SQ injection, Day 14, dairy cows, dose 353-468 ug): 5,972 mg/dL and 3,257 mg/dL and 3,894 mg/dL
Serum IgG Concentration (total IgG; SQ injection, Day 21, dairy cows, dose 353-468 ug): 5,722 mg/dL and 3,149 mg/dL and 3,981 mg/dL
Serum IgG Concentration (total IgG; SQ injection, Day 28, dairy cows, dose 353-468 ug): 4,015 mg/dL and 3,009 mg/dL and 2,221 mg/dL
total sera IgG immune response, treated groups normalized against the empty groups (total IgG; dairy cows, 3 animals per construct, 28-day test period, FIG. 9): detectable immune response in at least one of the treated animals
OVA-specific IgG, Absorbance (OD450) (ovalbumin (OVA); IM injection, Day 0, dairy cows): 0.842 OD450 and 0.938 OD450 and 0.308 OD450
OVA-specific IgG, Absorbance (OD450) (ovalbumin (OVA); IM injection, Day 14, dairy cows): 1.653 OD450 and 1.048 OD450 and 0.513 OD450
OVA-specific IgG, Absorbance (OD450) (ovalbumin (OVA); IM injection, Day 21, dairy cows): 1.23 OD450 and 1.261 OD450 and 0.443 OD450
OVA-specific IgG, Absorbance (OD450) (ovalbumin (OVA); IM injection, Day 28, dairy cows): 1.097 OD450 and 0.999 OD450 and 0.465 OD450
OVA-specific IgG, Absorbance (OD450) (ovalbumin (OVA); SQ injection, Day 0, dairy cows): 1.394 OD450 and 1.327 OD450 and 3.178 OD450
OVA-specific IgG, Absorbance (OD450) (ovalbumin (OVA); SQ injection, Day 14, dairy cows): 1.287 OD450 and 1.175 OD450 and 2.478 OD450
OVA-specific IgG, Absorbance (OD450) (ovalbumin (OVA); SQ injection, Day 21, dairy cows): 1.504 OD450 and 1.277 OD450 and 1.985 OD450
OVA-specific IgG, Absorbance (OD450) (ovalbumin (OVA); SQ injection, Day 28, dairy cows): 1.368 OD450 and 1.066 OD450 and 1.691 OD450
OVA-specific IgG response, intramuscular as compared to subcutaneous injection (ovalbumin (OVA); dairy cows, FIG. 10): ~4 fold
